Experimental data: patent US10654802B2, “Indoline derivatives and method for using and producing the same” (ARIZONA BOARD OF REGENTS ON BEHALF OF THE UNIVERSITY OF …, priority 2016, dated 2020)

Target: T1, Nox4 (Homo sapiens, UniProt Q9NPH5)
T1 construct: expressed in transfected cells
T1 sequence (Q9NPH5 1-578): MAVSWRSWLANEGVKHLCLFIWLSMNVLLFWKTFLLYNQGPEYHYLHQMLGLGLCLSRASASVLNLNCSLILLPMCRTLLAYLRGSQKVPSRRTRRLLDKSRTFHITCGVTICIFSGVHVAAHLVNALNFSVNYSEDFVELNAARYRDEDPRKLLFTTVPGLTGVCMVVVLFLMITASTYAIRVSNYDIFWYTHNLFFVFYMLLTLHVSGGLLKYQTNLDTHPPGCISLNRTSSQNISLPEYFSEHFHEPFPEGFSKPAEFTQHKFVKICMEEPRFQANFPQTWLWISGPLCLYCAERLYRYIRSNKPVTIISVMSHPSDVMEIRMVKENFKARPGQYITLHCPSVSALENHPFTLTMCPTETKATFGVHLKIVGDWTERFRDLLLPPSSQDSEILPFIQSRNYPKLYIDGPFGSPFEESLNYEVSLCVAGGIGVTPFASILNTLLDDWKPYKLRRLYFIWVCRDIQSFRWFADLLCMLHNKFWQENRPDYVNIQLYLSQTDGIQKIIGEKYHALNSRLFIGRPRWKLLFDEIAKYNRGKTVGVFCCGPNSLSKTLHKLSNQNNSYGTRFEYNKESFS
T1 sequence (P13498 1-195 partner): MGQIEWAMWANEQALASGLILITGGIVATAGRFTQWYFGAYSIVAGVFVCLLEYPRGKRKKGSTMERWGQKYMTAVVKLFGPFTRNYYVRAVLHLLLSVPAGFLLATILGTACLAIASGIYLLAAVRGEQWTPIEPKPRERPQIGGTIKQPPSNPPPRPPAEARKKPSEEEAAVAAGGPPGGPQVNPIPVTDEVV
Test: Inhibition of Nox4-dependent H2O2 production in HEK/Nox4 cells, Amplex Red assay
Format: cell-based
Details: 1 h, HEK/Nox4 cells, DMSO vehicle = 1.000, n = 3-10, read-out: H2O2 production relative to vehicle control, Mean; for remaining activity at 1 µM: 1 μM final concentration; for remaining activity at 5 µM: 5 μM final concentration; for remaining activity at 10 µM: 10 μM final concentration
Procedure: A high-throughput screening (HTS) assay was established for Nox4 inhibition, utilizing HEK293 cells that stably over-express Nox4 (HEK/Nox4 cells), which generate high levels of H2O2(Cheng G et al, Gene: 2001, p. 131-140). Over 30,000 compounds have been screened and medicinal chemistry efforts have led to the synthesis of numerous analogs and the identification of a chemically distinct series of selective Nox4 inhibitors. […] IC-50 was evaluated for UANox048 (FIG. 1B).
HEK cells stably transfected to overexpress Nox4 were treated with varying concentrations of test compounds, DPI (all-Nox inhibitor positive control), or DMSO (vehicle control) and incubated for 1 h (FIG. 1). (FIG. 1A) H2O2 presence was evaluated by Amplex Red assay. […] Values represent means±SEM; n=4. P values were calculated by student's two-tailed t test. *p<0.05, **p<0.01, *** p<0.001.

Row | Compound | remaining activity at 1 µM [%] | remaining activity at 5 µM [%] | remaining activity at 10 µM [%]
1 | O=C(CCN1CCN(c2ncccn2)CC1)N1CCc2ccccc21 [UANOX022, 1-(indolin-1-yl)-3-(4-(pyrimidin-2-yl)piperazin-1-yl)propan-1-one] | 111 | 107 | 110
2 | CCN(CC)S(=O)(=O)N1CCN(CCC(=O)N2CCc3ccccc32)CC1 [UANOX029, N,N-diethyl-4-(3-(indolin-1-yl)-3-oxopropyl)piperazine-1-sulfonamide] | 112 | 112 | 110
3 | O=C(CNC1CCCCCC1)N1CCc2ccccc21 [UANOX023, 2-(cycloheptylamino)-1-(indolin-1-yl)ethan-1-one] | 98.4 | 108 | 100
4 | CC(C)(CNS(=O)(=O)c1ccc(OC(F)(F)F)cc1)N1CCc2ccccc21 [UANOX090, N-(2-(indolin-1-yl)-2-methylpropyl)-4-(trifluoromethoxy)benzenesulfonamide] | 104 | 88.7 | 74.5
5 | c1ccc2c(c1)CCN2CCN1CCCCC1 [UANOX018, 1-(2-(piperidin-1-yl)ethyl)indoline] | 110 | 103 | 100
6 | O=S(=O)(NCCN1CCc2ccccc21)c1ccc(Oc2ccccc2)cc1 [UANOX079, N-(2-(indolin-1-yl)ethyl)-4-phenoxybenzenesulfonamide] | 89.6 | 65.1 | 58.4
7 | CN(C)S(=O)(=O)N1CCN(CCC(=O)N2CCc3ccccc32)CC1 [UANOX032, 4-(3-(indolin-1-yl)-3-oxopropyl)-N,N-dimethylpiperazine-1-sulfonamide] | 112 | 109 | 105
8 | O=S(=O)(NCCN1CCc2ccccc21)c1ccc(C(F)(F)F)cc1 [UANOX075, 4-trifluoromethyl-N-(2-(indolin-1-yl)ethyl)benzenesulfonamide] | 82.3 | 72.1 | 67.7
9 | O=S(=O)(c1ccc(F)cc1)N1CCN(CCN2CCc3ccccc32)CC1 [UANOX064, 1-(2-(4-((4-fluorophenyl)sulfonyl)piperazin-1-yl)ethyl)indoline] | 86.3 | 75.7 | 72.4
10 | O=C(CCN1CCN(S(=O)(=O)N2CCOCC2)CC1)N1CCc2ccccc21 [UANOX030] | 108 | 108 | 104
11 | N#Cc1ccc(S(=O)(=O)NCCN2CCc3ccccc32)cc1 [UANOX082, 4-cyano-N-(2-(indolin-1-yl)ethyl)benzenesulfonamide] | 90.8 | 70.7 | 60.6
12 | O=S(=O)(NCCN1CCc2ccccc21)c1ccc(OC(F)(F)F)cc1 [UANOX076, 4-trifluoromethoxy-N-(2-(indolin-1-yl)ethyl)benzenesulfonamide] | 83.2 | 72 | 66.2
13 | O=S(=O)(NCCN1CCc2ccccc21)c1ccc(Oc2ccc(C(F)(F)F)cn2)cc1 [UANOX080, N-(2-(indolin-1-yl)ethyl)-4-((5-(trifluoromethyl)pyridin-2-yl)oxy)benzenesulfonamide] | 85.5 | 60.1 | 49.1
14 | CCN(CC)C(=O)NCCN1CCc2ccccc21 [UANOX002, 1,1-diethyl-3-(2-(indolin-1-yl)ethyl)urea] | 98.6 | 106 | 101
15 | O=C(CN1CCN(S(=O)(=O)N2CCOCC2)CC1)N1CCc2ccccc21 [UANOX026, 1-(indolin-1-yl)-2-(4-(morpholinosulfonyl)piperazin-1-yl)ethan-1-one] | 90.6 | 106 | 101
16 | CN(C)S(=O)(=O)N1CCN(CC(=O)N2CCc3ccccc32)CC1 [UANOX028, 4-(2-(indolin-1-yl)-2-oxoethyl)-N,N-dimethylpiperazine-1-sulfonamide] | 108 | 112 | 111

Next, values leading:

Row | remaining activity at 1 µM [%] | remaining activity at 5 µM [%] | remaining activity at 10 µM [%] | Compound
17 | 94.2 | 75.9 | 74.4 | CC(CNS(=O)(=O)c1ccc(C#N)cc1)N1CCc2ccccc21 (stereo not drawn) [UANOX073]
18 | 102 | 83.2 | 74.7 | CCN(CC)S(=O)(=O)NCC(C)N1CCc2cc(-c3cccc(OC)c3)ccc21 (stereo not drawn) [UANOX036, N-(2-(5-(3-methoxyphenyl)indolin-1-yl)propyl)-N,N-diethyl-1-sulfonamide]
19 | 92.5 | 80 | 63.5 | CCN(CC)S(=O)(=O)Nc1ccc(N2CCc3ccccc32)cc1 [UANOX038, N—(N,N-diethylaminosulfonyl)-4-(indolin-1-yl)aniline]
20 | 90.2 | 87.6 | 82.4 | COc1ccc(-c2nc(C(=O)NCC(C)N3CCc4ccccc43)cs2)cc1 (stereo not drawn) [UANOX054, N-(2-(indolin-1-yl)propyl)-2-(4-(methoxy)phenyl)thiazole-4-carboxamide]
21 | 103 | 91.6 | 90.8 | CC(CNS(=O)(=O)N(C)C)N1CCc2ccccc21 (stereo not drawn) [UANOX007, N—(N,N-dimethylaminosulfonyl)-2-(indolin-1-yl)propane-1-amine]
22 | 82.2 | 82.5 | 74.1 | CCN(CC)C(=O)NCC(C)N1CCc2ccccc21 (stereo not drawn) [UANOX006, 1,1-diethyl-3-(2-(indolin-1-yl)propyl)urea]
23 | 88.8 | 67 | 55.8 | O=S(=O)(NCCN1CCc2ccccc21)c1ccc(F)c(F)c1 [UANOX081, 3,4-difluoro-N-(2-(indolin-1-yl)ethyl)benzenesulfonamide]
24 | 90.2 | 90.8 | 86.8 | CC(CNC(=O)c1csc(-c2ccccc2)n1)N1CCc2ccccc21 (stereo not drawn) [UANOX055, N-(2-(indolin-1-yl)propyl)-2-phenylthiazole-4-carboxamide]
25 | 90.3 | 77.5 | 67.5 | CC(C)(CNS(=O)(=O)c1ccc(C(F)(F)F)cc1)N1CCc2ccccc21 [UANOX084, N-(2-(indolin-1-yl)-2-methylpropyl)-4-(trifluoromethyl)benzenesulfonamide]
26 | 100 | 91.2 | 86.7 | CC(CNC(=O)c1csc(-c2ccncc2)n1)N1CCc2ccccc21 (stereo not drawn) [UANOX033, N-(2-(indolin-1-yl)propyl)-2-(pyridin-4-yl)thiazole-4-carboxamide]
27 | 91.5 | 81.4 | 74.1 | CC(CNC(=O)N1CCN(C)CC1)N1CCc2ccccc21 (stereo not drawn) [UANOX019, N-(2-(indolin-1-yl)propyl)-4-methylpiperazine-1-carboxamide]
